Data as given in PubChem BioAssay (NCI).
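GI50: concentration for 50% inhibition of growth. TGI is the concentration that stops growth completely.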

Key:
Experiment in all cases: DTP human tumour cell line panel, 384-well format
EKVX NSCLC = tested on: EKVX NSCLC
MDA-MB-435 melanoma = tested on: MDA-MB-435 melanoma
OVCAR-3 ovarian = tested on: OVCAR-3 ovarian
K-562 leukemia = tested on: K-562 leukemia
SW-620 colon = tested on: SW-620 colon
HS 578T breast = tested on: HS 578T breast
HCT-15 colon = tested on: HCT-15 colon
OVCAR-4 ovarian = tested on: OVCAR-4 ovarian
UO-31 renal = tested on: UO-31 renal
LOX IMVI melanoma = tested on: LOX IMVI melanoma
MCF7 breast = tested on: MCF7 breast
TK-10 renal = tested on: TK-10 renal
HCT-116 colon = tested on: HCT-116 colon
A498 renal = tested on: A498 renal
CAKI-1 renal = tested on: CAKI-1 renal
U251 glioblastoma = tested on: U251 glioblastoma
OVCAR-5 ovarian = tested on: OVCAR-5 ovarian
BT-549 breast = tested on: BT-549 breast
IGROV1 ovarian = tested on: IGROV1 ovarian
DU-145 prostate = tested on: DU-145 prostate
MOLT-4 leukemia = tested on: MOLT-4 leukemia
COLO 205 colon = tested on: COLO 205 colon
SNB-19 CNS = tested on: SNB-19 CNS
HOP-62 NSCLC = tested on: HOP-62 NSCLC
SK-OV-3 ovarian = tested on: SK-OV-3 ovarian
RXF 393 renal = tested on: RXF 393 renal
NCI-H322M lung = tested on: NCI-H322M lung
NCI-H23 lung = tested on: NCI-H23 lung
SN12C renal = tested on: SN12C renal
UACC-257 melanoma = tested on: UACC-257 melanoma
KM12 colon = tested on: KM12 colon
SNB-75 CNS = tested on: SNB-75 CNS
SK-MEL-28 melanoma = tested on: SK-MEL-28 melanoma
MDA-MB-231 breast = tested on: MDA-MB-231 breast
SF-268 CNS = tested on: SF-268 CNS
SF-539 CNS = tested on: SF-539 CNS
MDA-MB-468 breast = tested on: MDA-MB-468 breast
SK-MEL-5 melanoma = tested on: SK-MEL-5 melanoma
NCI-H226 lung = tested on: NCI-H226 lung
M14 melanoma = tested on: M14 melanoma
ACHN renal = tested on: ACHN renal
PC-3 prostate = tested on: PC-3 prostate
MALME-3M melanoma = tested on: MALME-3M melanoma
CCRF-CEM leukemia = tested on: CCRF-CEM leukemia
HT29 colon = tested on: HT29 colon
NCI/ADR-RES ovarian = tested on: NCI/ADR-RES ovarian
HCC-2998 colon = tested on: HCC-2998 colon
NCI-H460 NSCLC = tested on: NCI-H460 NSCLC
SF-295 CNS = tested on: SF-295 CNS
RPMI-8226 leukemia = tested on: RPMI-8226 leukemia
UACC-62 melanoma = tested on: UACC-62 melanoma
786-0 renal = tested on: 786-0 renal
HOP-92 NSCLC = tested on: HOP-92 NSCLC
OVCAR-8 ovarian = tested on: OVCAR-8 ovarian

CCN(CCO)CCCOc1ccc2c(Nc3cc(CC(=O)Nc4cccc(F)c4)[nH]n3)ncnc2c1
GI50 (EKVX NSCLC): 14 µM
TGI (EKVX NSCLC): 41.7 µM
GI50 (MDA-MB-435 melanoma): 13.4 µM
TGI (MDA-MB-435 melanoma): 26.3 µM
GI50 (OVCAR-3 ovarian): 1630 nM
TGI (OVCAR-3 ovarian): 14.7 µM
GI50 (K-562 leukemia): 10.1 µM
TGI (K-562 leukemia): 22.7 µM
GI50 (SW-620 colon): 13.7 µM
TGI (SW-620 colon): 28.9 µM
GI50 (HS 578T breast): 20.5 nM
TGI (HS 578T breast): 18.5 µM
GI50 (HCT-15 colon): > 100 µM
TGI (HCT-15 colon): > 100 µM
GI50 (OVCAR-4 ovarian): 12.2 µM
TGI (OVCAR-4 ovarian): 26.5 µM
GI50 (UO-31 renal): > 100 µM
TGI (UO-31 renal): > 100 µM
GI50 (LOX IMVI melanoma): 10.2 µM
TGI (LOX IMVI melanoma): 21.8 µM
GI50 (MCF7 breast): 2690 nM
TGI (MCF7 breast): 18.2 µM
GI50 (TK-10 renal): 32.5 µM
TGI (TK-10 renal): > 100 µM
GI50 (HCT-116 colon): 8.43 µM
TGI (HCT-116 colon): 21.4 µM
GI50 (A498 renal): 29.8 µM
TGI (A498 renal): > 100 µM
GI50 (CAKI-1 renal): 11.7 µM
TGI (CAKI-1 renal): 26.4 µM
GI50 (U251 glioblastoma): 12 µM
TGI (U251 glioblastoma): 24.4 µM
GI50 (OVCAR-5 ovarian): 18.1 µM
TGI (OVCAR-5 ovarian): 51.2 µM
GI50 (BT-549 breast): 12 µM
TGI (BT-549 breast): 24.4 µM
GI50 (IGROV1 ovarian): 11.6 µM
TGI (IGROV1 ovarian): 24.9 µM
GI50 (DU-145 prostate): 27.7 µM
TGI (DU-145 prostate): 92 µM
GI50 (MOLT-4 leukemia): < 10 nM
GI50 (COLO 205 colon): 23.6 nM
TGI (COLO 205 colon): 91.5 nM
GI50 (SNB-19 CNS): 11.7 µM
TGI (SNB-19 CNS): 24.1 µM
GI50 (HOP-62 NSCLC): 11.7 µM
TGI (HOP-62 NSCLC): 24.1 µM
GI50 (SK-OV-3 ovarian): 9.32 µM
TGI (SK-OV-3 ovarian): 21.4 µM
GI50 (RXF 393 renal): 46.5 nM
TGI (RXF 393 renal): 20.6 µM
GI50 (NCI-H322M lung): 16.2 µM
TGI (NCI-H322M lung): 38.5 µM
GI50 (NCI-H23 lung): 11.8 µM
TGI (NCI-H23 lung): 25.1 µM
GI50 (SN12C renal): 10.8 µM
TGI (SN12C renal): 23.4 µM
GI50 (UACC-257 melanoma): 14.7 µM
TGI (UACC-257 melanoma): 27.9 µM
GI50 (KM12 colon): 3.46 µM
TGI (KM12 colon): 14.6 µM
GI50 (SNB-75 CNS): 15.1 µM
TGI (SNB-75 CNS): 28.4 µM
GI50 (SK-MEL-28 melanoma): 15.5 µM
TGI (SK-MEL-28 melanoma): 29 µM
GI50 (MDA-MB-231 breast): 12 µM
TGI (MDA-MB-231 breast): 24.5 µM
GI50 (SF-268 CNS): < 10 nM
TGI (SF-268 CNS): 4.6 µM
GI50 (SF-539 CNS): 2310 nM
TGI (SF-539 CNS): 19.1 µM
GI50 (MDA-MB-468 breast): 15.5 nM
TGI (MDA-MB-468 breast): 4.03 µM
GI50 (SK-MEL-5 melanoma): 11.4 µM
TGI (SK-MEL-5 melanoma): 24.8 µM
GI50 (NCI-H226 lung): 14.4 µM
TGI (NCI-H226 lung): 36.4 µM
GI50 (M14 melanoma): 13.3 µM
TGI (M14 melanoma): 26.6 µM
GI50 (ACHN renal): > 100 µM
TGI (ACHN renal): > 100 µM
GI50 (PC-3 prostate): 15.1 µM
TGI (PC-3 prostate): 28.6 µM
GI50 (MALME-3M melanoma): 11.3 µM
TGI (MALME-3M melanoma): 23.4 µM
GI50 (CCRF-CEM leukemia): < 10 nM
GI50 (HT29 colon): 13.2 µM
TGI (HT29 colon): 26.2 µM
GI50 (NCI/ADR-RES ovarian): > 100 µM
TGI (NCI/ADR-RES ovarian): > 100 µM
GI50 (HCC-2998 colon): 12.8 µM
TGI (HCC-2998 colon): 25.4 µM
GI50 (NCI-H460 NSCLC): 40.3 nM
TGI (NCI-H460 NSCLC): 16.9 µM
GI50 (SF-295 CNS): 13.8 µM
TGI (SF-295 CNS): 29.2 µM
GI50 (RPMI-8226 leukemia): 7.83 µM
TGI (RPMI-8226 leukemia): 21.2 µM
GI50 (UACC-62 melanoma): 13.9 µM
TGI (UACC-62 melanoma): 26.9 µM
GI50 ([…]-0 renal): 16 µM
TGI (786-0 renal): 31.7 µM
GI50 (HOP-92 NSCLC): 8.99 µM
TGI (HOP-92 NSCLC): 21.2 µM
GI50 (OVCAR-8 ovarian): 14.7 µM
TGI (OVCAR-8 ovarian): 28.9 µM
